US5696151A, “Compounds useful for the inhibition of the replication of HIV-1 and HIV-1 mutants” (priority 1995, dated 1997)
Converted amounts (≈) assume the structure as drawn.

Assays:
Format in all cases: cell-based
[1] = system: HIV-1/Lys-138; experiment: Inhibition of HIV-1 induced syncytium formation in CEM cells, RT mutant 138-Lys; settings: Table 2B, day 4, averages of 2 to 3 independent experiments; for EC50: Human immunodeficiency virus 1, CCRF-CEM, 96 h, read-out: Antiviral Activity of Comparative Compounds EC50, 138-Lys
In short: (§1)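 Mutant strains were selected in culture for resistance to NNRTIs such as TSAO-m^3T, pyridinone L-697,661 or HEPT. Antiviral effect is inhibition of syncytium formation in infected CEM cells (~100 CCID50), assessed microscopically at day 4.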

[2] = system: CEM cells; experiment: in vitro; settings: Table 2B; CEM cell proliferation; averages of 2 to 3 independent experiments
In short: (§2)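 Value is the 50% cytostatic concentration, the compound concentration that inhibits CEM cell proliferation by 50%. HIV-1(IIIB) and NNRTI-resistant variants selected in culture (Lys-138, 181-Cys, 188-His, 188-Leu) were used alongside.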

[3] = system: HIV-1/100-Ile; experiment: Inhibition of HIV-1 induced syncytium formation in CEM cells, RT mutant 100-Ile; settings: Table 2B, day 4, averages of 2 to 3 independent experiments; for EC50: Human immunodeficiency virus 1, CCRF-CEM, 96 h, read-out: Antiviral Activity of Comparative Compounds EC50, 100-Ile
In short: as §1

[4] = system: HIV-1/181-Cys; experiment: Inhibition of HIV-1 induced syncytium formation in CEM cells, RT mutant 181-Cys; settings: Table 2B, day 4, averages of 2 to 3 independent experiments; for EC50: Human immunodeficiency virus 1, CCRF-CEM, 96 h, read-out: Antiviral Activity of Comparative Compounds EC50, 181-Cys
In short: as §1

[5] = system: HIV-1(IIIB); experiment: Inhibition of HIV-1 induced syncytium formation in CEM cells, wild type; settings: Table 2B, WT = HIV-1(IIIB), day 4, averages of 2 to 3 independent experiments; for EC50: Human immunodeficiency virus 1, IIIB, CCRF-CEM, 96 h, read-out: Antiviral Activity of Comparative Compounds EC50, WT
In short: as §1

[6] = system: HIV-1/106-Ala; experiment: Inhibition of HIV-1 induced syncytium formation in CEM cells, RT mutant 106-Ala; settings: Table 2B, day 4, averages of 2 to 3 independent experiments; for EC50: Human immunodeficiency virus 1, CCRF-CEM, 96 h, read-out: Antiviral Activity of Comparative Compounds EC50, 106-Ala
In short: as §1

[7] = system: HIV-1/188-Leu; experiment: Inhibition of HIV-1 induced syncytium formation in CEM cells, RT mutant 188-Leu; settings: Human immunodeficiency virus 1, CCRF-CEM, 96 h, Table 2B, day 4, averages of 2 to 3 independent experiments, read-out: Antiviral Activity of Comparative Compounds EC50, 188-Leu
Excerpt: (§3) CEM cells were obtained from the American Tissue Cell Culture Collection (Rockville, Md.). HIV-1(IIIB) was originally obtained from the culture supernatant of persistently HIV-1-infected H9 cells and was provided by R. C. Gallo and M. Popovic (National Cancer Institute, National Institutes of Health, Bethesda, Md.). […] 67: 5353-5359 (1993); HIV-1/Lys-138 ("Lys-138") was selected for resistance against TSAO-m^3T as described in Balzarini et al, Virology 192: 246-253 (1993) and Balzarini et al, Proc. Nat. Acad. Sci. USA 90: 6952-6956 (1993); HIV-1/181-Cys ("181-Cys") was selected for resistance against pyridinone L-697,661 as described in Balzarini et al, Virology 192: 246-253 (1993); and HIV-1/188-His ("188-His") was selected for resistance against HEPT as described in Balzarini et al, Mol. Pharmocol. 44: 694-701 (1993). 188-His was then further converted to HIV-1/188-Leu "188-Leu") upon further passage in cell culture in the absence of the HEPT.
(§4) CEM cells were suspended at ≈300,000 cells per ml of culture medium and infected with approximately 100 CCID50 (CCID50 being the 50% cell culture infective dose) of HIV-1(IIIB) or one of the HIV-1 RT mutant strains described above. Then 100 μl of the infected cell suspensions was added to 200 μl microtiter plate wells containing 100 μl of appropriate serial (5-fold) dilutions of the test compounds. The inhibitory effect of the test compounds on HIV-1 induced syncytium formation in CEM cells was examined microscopically on day 4 post infection.

[8] = system: HIV-1/103-Asn; experiment: Inhibition of HIV-1 induced syncytium formation in CEM cells, RT mutant 103-Asn; settings: Human immunodeficiency virus 1, CCRF-CEM, 96 h, Table 2B, day 4, averages of 2 to 3 independent experiments, read-out: Antiviral Activity of Comparative Compounds EC50, 103-Asn
Excerpt: as §3, §4

[9] = in vitro; settings: human, cem cells, CC50 (50% cytostatic concentration), Table 2B; CEM cell proliferation; averages of 2 to 3 independent experiments
In short: as §2

| SMILES | Antiviral Activity of Comparative Compounds EC50, 138-Lys [1] [µg/mL] | CC50 (50% cytostatic concentration) [2] [µg/mL] | Antiviral Activity of Comparative Compounds EC50, 100-Ile [3] [µg/mL] | Antiviral Activity of Comparative Compounds EC50, 181-Cys [4] [µg/mL] | Antiviral Activity of Comparative Compounds EC50, WT [5] [µg/mL] | Antiviral Activity of Comparative Compounds EC50, 106-Ala [6] [µg/mL] | EC50 [7] [µg/mL] | EC50 [8] [µg/mL] | EC50 [1] [µg/mL] | CC50 [9] [µg/mL] | EC50 [3] [µg/mL] | EC50 [4] [µg/mL] | EC50 [5] [µg/mL] | EC50 [6] [µg/mL] |
| --- | --- | --- | --- | --- | --- | --- | --- | --- | --- | --- | --- | --- | --- | --- |
| Cc1sccc1C(=O)Nc1ccc(Cl)c(C(=O)OC2CCCCC2)c1 [Compound 58] | 6.0 | 6.5 (≈ 17.2 µM) | 5.5 | 5.0 | 0.19 | 7.0 |  |  |  |  |  |  |  |  |
| Cc1occc1C(=S)Nc1ccc(Cl)c(C=NOC(C)(C)C)c1 [Compound 114] | 0.075 | 5.8 (≈ 16.5 µM) | 0.085 | 0.075 | 0.05 | 0.13 |  |  |  |  |  |  |  |  |
| Cc1sccc1C(=S)Nc1ccc(Cl)c(C(=O)OC2CCCCC2)c1 [Compound 9] | 0.02 | 6.0 (≈ 15.2 µM) | 0.057 | 0.032 | 0.0032 | 0.03 | ≥ 2 | 0.13 (≈ 0.33 µM) |  |  |  |  |  |  |
| Cc1sccc1C(=S)Nc1ccc(Cl)c(C(=O)OC2CCCCC2)c1 [Compound 59] | 0.40 | 15 (≈ 38.1 µM) | 0.65 | 0.35 | 0.09 | 0.60 |  |  |  |  |  |  |  |  |
| CC=CCSc1cc(NC(=O)c2ccoc2C)ccc1Cl [Compound 35] |  |  |  |  |  |  | > 2 | 0.55 (≈ 1.71 µM) | 0.7 (≈ 2.18 µM) | 5.9 (≈ 18.3 µM) | 1.5 (≈ 4.66 µM) | 1.6 (≈ 4.97 µM) | 0.16 (≈ 0.497 µM) | 0.8 (≈ 2.49 µM) |
| CC=CCOc1cc(NC(=S)c2ccoc2C)ccc1Cl [Compound 2] |  |  |  |  |  |  | 0.65 (≈ 2.02 µM) | 0.023 (≈ 0.0715 µM) | 0.018 (≈ 0.0559 µM) | 9 (≈ 28 µM) | 0.048 (≈ 0.149 µM) | 0.075 (≈ 0.233 µM) | 0.006 (≈ 0.0186 µM) | 0.04 (≈ 0.124 µM) |
| Cc1occc1C(=O)Nc1ccc(Cl)c(OCCC(C)C)c1 [Compound 37] |  |  |  |  |  |  | > 2 | ≥ 2 | 1.25 (≈ 3.88 µM) | 5 (≈ 15.5 µM) | ≥ 2 | 1.73 (≈ 5.38 µM) | 0.16 (≈ 0.497 µM) | 1.3 (≈ 4.04 µM) |
| Cc1sccc1C(=S)Nc1ccc(Cl)c(SCC(=O)OC(C)(C)C)c1 [Compound 20] |  |  |  |  |  |  | > 2 | 0.44 (≈ 1.06 µM) | 0.43 (≈ 1.04 µM) | 5.4 (≈ 13 µM) | 0.34 (≈ 0.821 µM) | 0.14 (≈ 0.338 µM) | 0.13 (≈ 0.314 µM) | 0.15 (≈ 0.362 µM) |
| CCC1=C(C(=O)Nc2ccc(Cl)c(C=NOC(C)(C)C)c2)SCCO1 [Compound 15] |  |  |  |  |  |  | > 2 | 0.065 (≈ 0.17 µM) | 0.07 (≈ 0.183 µM) | 11.4 (≈ 29.8 µM) | 0.06 (≈ 0.157 µM) | 0.09 (≈ 0.235 µM) | 0.03 (≈ 0.0783 µM) | 0.06 (≈ 0.157 µM) |
| CC=CCOc1cc(NC(=S)c2ccn(C)c2C)ccc1Cl [Compound 19] |  |  |  |  |  |  | > 2 | ≥ 2 | 0.6 (≈ 1.79 µM) | 5.2 (≈ 15.5 µM) | 0.85 (≈ 2.54 µM) | 0.13 (≈ 0.388 µM) | 0.17 (≈ 0.508 µM) | 0.4 (≈ 1.19 µM) |
| Cc1occc1C(=S)Nc1ccc(Cl)c(C=NOC(C)(C)C)c1 [Compound 3] |  |  |  |  | 0.0065 | 0.03 | 0.91 (≈ 2.59 µM) | 0.23 (≈ 0.656 µM) | 0.045 (≈ 0.128 µM) | 5.8 (≈ 16.5 µM) | 0.057 (≈ 0.162 µM) | 0.08 (≈ 0.228 µM) |  |  |
| CC=CCOc1cc(NC(=O)c2ccsc2C)ccc1Cl [Compound 45] |  |  |  |  |  |  | > 10 | 0.95 (≈ 2.95 µM) | 0.65 (≈ 2.02 µM) | 87 (≈ 270 µM) | 0.6 (≈ 1.86 µM) | 0.5 (≈ 1.55 µM) | 0.15 (≈ 0.466 µM) | 0.85 (≈ 2.64 µM) |
| Cc1sccc1C(=S)Nc1ccc(Cl)c(OCCC(C)C)c1 [Compound 12] |  |  |  |  |  |  | > 2 | 0.035 (≈ 0.0989 µM) | 0.035 (≈ 0.0989 µM) | > 100 | 0.035 (≈ 0.0989 µM) | 0.07 (≈ 0.198 µM) | 0.007 (≈ 0.0198 µM) | 0.08 (≈ 0.226 µM) |
| Cc1sccc1C(=S)Nc1ccc(Cl)c(OCC2CCCC2)c1 [Compound 28] |  |  |  |  |  |  | > 2 | 0.33 (≈ 0.902 µM) | 0.11 (≈ 0.301 µM) | 4.3 (≈ 11.8 µM) | 0.22 (≈ 0.601 µM) | 0.5 (≈ 1.37 µM) | 0.029 (≈ 0.0792 µM) | 0.23 (≈ 0.628 µM) |
| CC=CCSc1cc(NC(=S)c2ccoc2C)ccc1Cl [Compound 6] |  |  |  |  |  |  | 1 (≈ 2.96 µM) | 0.03 (≈ 0.0888 µM) | 0.03 (≈ 0.0888 µM) | 4.7 (≈ 13.9 µM) | 0.037 (≈ 0.11 µM) | 0.045 (≈ 0.133 µM) | 0.0041 (≈ 0.0121 µM) | 0.018 (≈ 0.0533 µM) |
| Cc1occc1C(=S)Nc1ccc(Cl)c(OC(=O)OC(C)C)c1 [Compound 46] |  |  |  |  |  |  | ≥ 2 | 4 (≈ 11.3 µM) | 0.6 (≈ 1.7 µM) | 25 (≈ 70.7 µM) | 4.5 (≈ 12.7 µM) | 5.5 (≈ 15.5 µM) | 0.37 (≈ 1.05 µM) | 3 (≈ 8.48 µM) |
| CC=CCSc1cc(NC(=O)c2ccsc2C)ccc1Cl [Compound 34] |  |  |  |  |  |  | > 2 | 0.8 (≈ 2.37 µM) | 0.5 (≈ 1.48 µM) | 4.8 (≈ 14.2 µM) | 0.65 (≈ 1.92 µM) | 1.2 (≈ 3.55 µM) | 0.08 (≈ 0.237 µM) | 0.28 (≈ 0.829 µM) |
